According to ChEMBL document CHEMBL1921711, “Transformation of quercitols into 4-methylenecyclohex-5-ene-1,2,3-triol derivatives, precursors for the chemical chaperones N-octyl-4-epi-β-valienamine (NOEV) and N-octyl-β-valienamine (NOV)” (Bioorg Med Chem Lett, 2011):
pIC50: −log10 of the molar value. Calls of active or inactive are those of the source. No cut-off for these calls is given here.

What was measured:
Beta-galactosidase [1] = molecular target: T1, Beta-galactosidase (Bos taurus, UniProt Q58D55); experiment: Inhibition of bovine liver beta-galactosidase by spectrometry
T1 sequence (Q58D55 whole entry): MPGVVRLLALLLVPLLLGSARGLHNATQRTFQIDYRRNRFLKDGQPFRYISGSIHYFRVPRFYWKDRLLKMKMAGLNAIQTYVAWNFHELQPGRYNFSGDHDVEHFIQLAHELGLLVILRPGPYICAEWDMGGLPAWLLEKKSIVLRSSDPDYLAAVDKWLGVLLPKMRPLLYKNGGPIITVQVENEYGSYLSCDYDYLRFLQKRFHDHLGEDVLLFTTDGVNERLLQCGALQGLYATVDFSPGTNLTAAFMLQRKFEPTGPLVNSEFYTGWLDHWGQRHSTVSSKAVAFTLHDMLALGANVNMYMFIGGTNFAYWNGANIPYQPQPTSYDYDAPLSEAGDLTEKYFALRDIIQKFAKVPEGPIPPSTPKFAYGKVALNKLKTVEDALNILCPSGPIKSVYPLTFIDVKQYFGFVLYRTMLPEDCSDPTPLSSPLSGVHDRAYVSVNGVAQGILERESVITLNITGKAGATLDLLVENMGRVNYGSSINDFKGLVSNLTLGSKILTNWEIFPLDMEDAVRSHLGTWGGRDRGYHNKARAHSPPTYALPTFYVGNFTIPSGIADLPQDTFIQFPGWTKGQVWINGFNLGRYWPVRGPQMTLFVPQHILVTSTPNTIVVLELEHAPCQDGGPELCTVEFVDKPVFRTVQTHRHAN

Homo sapiens = organism: Homo sapiens; experiment: Inhibition of human placental alpha-fucosidase by spectrometry
Alpha-galactosidase = Alpha-galactosidase (Coffea arabica, UniProt Q42656); experiment: Inhibition of green coffee beans alpha-galactosidase by spectrometry
Helix pomatia = experiment: Inhibition of helix pomatia beta-mannosidase by spectrometry
Canavalia ensiformis = experiment: Inhibition of jack beans alpha-mannosidase by spectrometry
Beta-galactosidase [2] = molecular target: T2, Beta-galactosidase (Aspergillus oryzae, UniProt Q2U7N3); experiment: Inhibition of Aspergillus oryzae beta-galactosidase by spectrometry
T2 sequence (Q2U7N3 whole entry): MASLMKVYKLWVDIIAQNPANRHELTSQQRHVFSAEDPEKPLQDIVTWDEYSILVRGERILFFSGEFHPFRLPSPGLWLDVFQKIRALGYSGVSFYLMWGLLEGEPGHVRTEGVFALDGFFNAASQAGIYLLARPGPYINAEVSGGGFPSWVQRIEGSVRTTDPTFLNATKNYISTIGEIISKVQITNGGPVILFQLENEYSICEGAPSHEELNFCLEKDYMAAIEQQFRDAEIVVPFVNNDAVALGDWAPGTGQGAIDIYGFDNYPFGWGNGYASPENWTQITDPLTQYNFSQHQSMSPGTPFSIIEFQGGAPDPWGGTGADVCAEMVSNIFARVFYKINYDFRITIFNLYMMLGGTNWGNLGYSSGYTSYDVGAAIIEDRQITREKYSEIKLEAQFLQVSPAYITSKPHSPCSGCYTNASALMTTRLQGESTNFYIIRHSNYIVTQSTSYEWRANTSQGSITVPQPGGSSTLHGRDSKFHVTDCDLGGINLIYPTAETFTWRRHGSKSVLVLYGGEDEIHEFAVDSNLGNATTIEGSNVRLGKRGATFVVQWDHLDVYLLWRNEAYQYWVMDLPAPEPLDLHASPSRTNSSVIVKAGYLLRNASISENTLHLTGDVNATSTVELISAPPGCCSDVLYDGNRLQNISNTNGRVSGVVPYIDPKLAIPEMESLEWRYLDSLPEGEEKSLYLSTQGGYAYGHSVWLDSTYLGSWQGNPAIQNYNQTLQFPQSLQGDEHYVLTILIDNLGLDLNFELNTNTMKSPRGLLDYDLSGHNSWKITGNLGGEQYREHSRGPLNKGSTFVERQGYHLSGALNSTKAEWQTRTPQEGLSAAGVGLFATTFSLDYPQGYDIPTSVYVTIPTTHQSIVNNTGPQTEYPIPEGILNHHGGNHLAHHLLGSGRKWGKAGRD

Prunus dulcis = experiment: (§1) Inhibition of almonds beta-glucosidase by spectrometry
[3] = as §1; set-up: species or system Prunus dulcis

Sequence of Alpha-galactosidase (Q42656 whole entry): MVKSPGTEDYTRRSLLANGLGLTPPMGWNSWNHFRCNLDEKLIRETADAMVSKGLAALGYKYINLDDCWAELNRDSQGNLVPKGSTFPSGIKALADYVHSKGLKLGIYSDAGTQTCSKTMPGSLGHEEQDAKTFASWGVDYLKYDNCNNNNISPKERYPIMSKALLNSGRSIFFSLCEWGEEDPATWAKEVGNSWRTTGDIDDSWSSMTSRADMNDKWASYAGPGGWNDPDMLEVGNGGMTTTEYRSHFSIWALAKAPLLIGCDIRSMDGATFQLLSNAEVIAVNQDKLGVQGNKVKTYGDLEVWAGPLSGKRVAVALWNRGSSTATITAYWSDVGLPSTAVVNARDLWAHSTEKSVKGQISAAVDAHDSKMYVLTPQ

| Compound | pIC50 (Beta-galactosidase [1]) | inhibition (Homo sapiens) | pIC50 (Alpha-galactosidase) | inhibition (Helix pomatia) | inhibition (Canavalia ensiformis) | pIC50 (Beta-galactosidase [2]) | inhibition (Prunus dulcis) | pIC50 [3] |
| --- | --- | --- | --- | --- | --- | --- | --- | --- |
| CCCCCCCCN[C@@H]1C=C(CO)[C@H](O)[C@H](O)[C@H]1O | 5.35 | inactive | 5.35 | inactive | inactive | 4.07 | Active | 5.09 |
| CCCCCCCCN[C@@H]1C=C(CO)[C@@H](O)[C@H](O)[C@H]1O | 5.54 |  | < 3.00 |  |  |  |  | 4.33 |
